Laboratory results reported in patent US8435978B2, “Substituted sulfonamide compounds” (Gruenenthal GmbH, priority 2006, dated 2013).
Structures can show the parent of a compound that is named as a salt.

Assays:
human B1R receptor = target: T1, human B1R receptor (Homo sapiens, UniProt P46663); assay: Functional study on the bradykinin receptor 1 (B1R), FLIPR Ca2+ assay, hB1R cells; type: cell-based; settings: agonist Lys-Des-Arg9-bradykinin 0.5 nM, % inhibition compared with the maximum achievable inhibition; for inhibition at 10 µM: CHO-K1, test substance 10 μM, read-out: B1R Antagonism, human [10 μM] % Inhibition; for B1R Antagonism, human [10 μM] % Inhibition: test substance 10 μM, hB1R CHO K1 cells
T1 construct: host or cells: CHO K1 cells (Chinese hamster ovary), stably transfected
T1 sequence (P46663 1-353): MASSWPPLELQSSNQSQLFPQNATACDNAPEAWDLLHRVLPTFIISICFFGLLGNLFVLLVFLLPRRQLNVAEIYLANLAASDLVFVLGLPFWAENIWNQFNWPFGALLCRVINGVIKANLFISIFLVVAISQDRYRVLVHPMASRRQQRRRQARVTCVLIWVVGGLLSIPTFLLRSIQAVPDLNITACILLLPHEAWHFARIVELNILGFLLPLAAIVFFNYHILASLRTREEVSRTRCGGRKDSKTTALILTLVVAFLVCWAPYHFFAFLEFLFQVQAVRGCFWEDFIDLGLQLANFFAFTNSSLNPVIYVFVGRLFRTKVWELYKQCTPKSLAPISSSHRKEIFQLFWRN
Method in brief: (§1)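 FLIPR Ca2+ read-out (Fluo-4, peak fluorescence) in stably transfected CHO K1 cells. Compounds at 10 μM, then 10 min later agonist challenge: human B1R with Lys-Des-Arg9-bradykinin 0.5 nM, rat B1R with Des-Arg9-bradykinin 100 nM; reported as % activation or % of maximal inhibition.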

B1R receptor of the rat = target: T2, B1R receptor of the rat (Rattus norvegicus, UniProt P97583); assay: Functional study on the bradykinin receptor 1 (B1R), FLIPR Ca2+ assay, rB1R cells; type: cell-based; settings: agonist Des-Arg9-bradykinin 100 nM, % inhibition compared with the maximum achievable inhibition; for inhibition at 10 µM: CHO-K1, test substance 10 μM, read-out: B1R Antagonism, rat [10 μM] % Inhibition; for B1R Antagonism, rat [10 μM] % Inhibition: test substance 10 μM, rB1R CHO K1 cells
T2 construct: host or cells: CHO K1 cells (Chinese hamster ovary), stably transfected
T2 sequence (P97583 1-337): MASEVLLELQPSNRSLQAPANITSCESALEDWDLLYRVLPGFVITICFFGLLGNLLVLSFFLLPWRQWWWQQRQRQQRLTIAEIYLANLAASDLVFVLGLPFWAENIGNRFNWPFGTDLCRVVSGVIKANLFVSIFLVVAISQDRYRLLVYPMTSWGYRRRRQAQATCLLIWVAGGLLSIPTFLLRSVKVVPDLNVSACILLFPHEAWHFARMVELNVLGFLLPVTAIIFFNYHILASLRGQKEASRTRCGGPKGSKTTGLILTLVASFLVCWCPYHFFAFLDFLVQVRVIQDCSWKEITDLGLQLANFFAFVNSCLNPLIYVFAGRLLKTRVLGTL
Method in brief: as §1

| inhibition at 10 µM (human B1R receptor) [%] | inhibition at 10 µM (B1R receptor of the rat) [%] | B1R Antagonism, human [10 μM] % Inhibition (human B1R receptor) [%] | B1R Antagonism, rat [10 μM] % Inhibition (B1R receptor of the rat) [%] | Compound |
| --- | --- | --- | --- | --- |
| 101 | 103 |  |  | O=C(COCC1CCCCN1S(=O)(=O)c1c(Cl)cccc1Cl)N1CCN(Cc2ccccc2)CC1 (stereo not drawn) [Example 480, 1-(4-benzylpiperazin-1-yl)-2-((1-(2,6-dichlorophenylsulfonyl)piperidin-2-yl)methoxy)ethanone] |
| 103 | 104 |  |  | COc1cc(C)c(S(=O)(=O)N2CCCC2COCC(=O)N2CCN(CC3CCCCC3)CC2)c(C)c1 (stereo not drawn) [Example 492, 1-(4-(cyclohexylmethyl)piperazin-1-yl)-2-((1-(4-methoxy-2,6-dimethylphenylsulfonyl)pyrrolidin-2-yl)methoxy)ethanone] |
|  |  | 101.93 | 100.16 | COc1cc(C)c(S(=O)(=O)N2CCCCC2COCC(=O)N2CCOC(c3cccnc3)C2)c(C)c1 (stereo not drawn) [Example 207, 2-((1-(4-methoxy-2,6-dimethylphenylsulfonyl)piperidin-2-yl)methoxy)-1-(2-(pyridin-3-yl)morpholin)ethanone] |
| 90 | 92.9 |  |  | CN(C)CCCN1CCN(C(=O)COCC2CCCN2S(=O)(=O)c2c(Cl)cc(C(F)(F)F)cc2Cl)CC1 (stereo not drawn) [Example 569, 2-((1-(2,6-dichloro-4-(trifluoromethyl)phenylsulfonyl)pyrrolidin-2-yl)methoxy)-1-(4-(3-(dimethylamino)propyl)piperazin-1-yl)ethanone] |
| 97.2 | 101 |  |  | COc1cc(C)c(S(=O)(=O)N2CCCCC2COCC(=O)N2CCC(c3nc4cc(C)ccc4[nH]3)CC2)c(C)c1 (stereo not drawn) [Example 397, 2-((1-(4-methoxy-2,6-dimethylphenylsulfonyl)piperidin-2-yl)methoxy)-1-(4-(5-methyl-1H-benzo[d]imidazol-2-yl)piperidin-1-yl)ethanone] |
| 98.3 | 98.9 |  |  | N#CCCN1CCN(C(=O)COCC2CCCCN2S(=O)(=O)c2c(Cl)cccc2Cl)CC1 (stereo not drawn) [Example 506, 3-(4-(2-((1-(2,6-dichlorophenylsulfonyl)piperidin-2-yl)methoxy)acetyl)piperazin-1-yl)propanenitrile] |
| 106 | 97.1 |  |  | COc1cc(C)c(S(=O)(=O)N2CCCC[C@H]2COCC(=O)N2CCC(Oc3ccncc3)CC2)c(C)c1 [Example 186, (S)-2-((1-(4-methoxy-2,6-dimethylphenylsulfonyl)piperidin-2-yl)methoxy)-1-(4-(pyridin-4-yloxy)piperidin-1-yl)ethanone hydrochloride] |
| 84 | 108 |  |  | O=C(COCC1CCCCN1S(=O)(=O)c1c(Cl)cc(Cl)cc1Cl)NCc1ccc(CN2CCOCC2)cc1 (stereo not drawn) [Example 30, N-(4-morpholin-4-ylmethyl-benzyl)-2-[1-(2,4,6-trichloro-phenylsulfonyl)-piperidin-2-ylmethoxy]-acetamide] |
| 99.6 | 106 |  |  | COc1cc(C)c(S(=O)(=O)N2CCCCC2COCC(=O)NCc2ccc(CN(C)C)cc2)c(C)c1 (stereo not drawn) [Example 11, N-(4-dimethylaminomethyl-benzyl)-2-[1-(4-methoxy-2,6-dimethyl-phenylsulfonyl)-piperidin-2-ylmethoxy]-acetamide] |
| 102 | 82.8 |  |  | CN1CCC(N2CCN(C(=O)COCC3CCCCN3S(=O)(=O)c3cc4ccccc4s3)CC2)CC1 (stereo not drawn) [Example 171, 2-((1-(benzo[b]thiophen-2-ylsulfonyl)piperidin-2-yl)methoxy)-1-(4-(1-methylpiperidin-4-yl)piperazin-1-yl)ethanone] |
| 106 | 108 |  |  | COc1cc(C)c(S(=O)(=O)N2CCCCC2COCC(=O)N2CCC(CCN3CCCCC3)CC2)c(C)c1 (stereo not drawn) [Example 533, 2-((1-(4-methoxy-2,6-dimethylphenylsulfonyl)piperidin-2-yl)methoxy)-1-(4-(2-(piperidin-1-yl)ethyl)piperidin-1-yl)ethanone] |
| 45.7 | 35.2 |  |  | CN(C(=O)COCC1Cc2ccccc2CN1S(=O)(=O)c1ccc(Cl)cc1Cl)C1CCN(Cc2ccccc2)C1 (stereo not drawn) [Example 78, N-(1-benzyl-pyrrolidin-3-yl)-2-[2-(2,4-dichloro-phenylsulfonyl)-1,2,3,4-tetrahydro-isoquinolin-3-ylmethoxy]-N-methyl-acetamide] |
| 76.4 | 96.9 |  |  | Cc1cc(C)c(S(=O)(=O)N2CCCCC2COCC(=O)N2CCCC2Cc2ccccn2)c(C)c1 (stereo not drawn) [Example 226, 2-((1-(mesitylsulfonyl)piperidin-2-yl)methoxy)-1-(2-(pyridin-2-ylmethyl)pyrrolidin-1-yl)ethanone] |
| 103 | 102 |  |  | COc1cc(C)c(S(=O)(=O)N2CCCC2COCC(=O)N2CCN(Cc3ccc(C)cc3)CC2)c(C)c1 (stereo not drawn) [Example 353, 2-((1-(4-methoxy-2,6-dimethylphenylsulfonyl)pyrrolidin-2-yl)methoxy)-1-(4-(4-methylbenzyl)piperazin-1-yl)ethanone] |
| 63.8 | 0 |  |  | O=C(COCC1CCCN1S(=O)(=O)c1ccc(Cl)c(Cl)c1)N1CCN(CC2CCCCC2)CC1 (stereo not drawn) [Example 54, 1-(4-cyclohexylmethyl-piperazin-1-yl)-2-[1-(3,4-dichloro-phenylsulfonyl)-pyrrolidin-2-ylmethoxy]-ethanone] |
| 81.8 | 99.7 |  |  | COc1cc(C)c(S(=O)(=O)N2CCCCC2COCC(=O)NC(CN2CCCC2)c2ccccc2)c(C)c1 (stereo not drawn) [Example 262, 2-((1-(4-methoxy-2,6-dimethylphenylsulfonyl)piperidin-2-yl)methoxy)-N-(1-phenyl-2-(pyrrolidin-1-yl)ethyl)acetamide] |
| 66.1 | 99.3 |  |  | COc1cc(C)c(S(=O)(=O)N2CCCCC2COCC(=O)NCCN(C)C)c(C)c1 (stereo not drawn) [Example 259, N-(2-(dimethylamino)ethyl)-2-((1-(4-methoxy-2,6-dimethylphenylsulfonyl)piperidin-2-yl)methoxy)acetamide] |
|  |  | 92.06 | 101.17 | N-(4-(2-(1H-benzo[d]imidazol-2-yl)ethyl)phenyl)-2-((1-(4-methoxy-2,6-dimethylphenylsulfonyl)pyrrolidin-2-yl)methoxy)acetamide [Example 472] |
| 82.7 | 47.7 |  |  | Cc1cc(C)c(S(=O)(=O)N2Cc3ccccc3CC2COCC(=O)NCc2cccc(N3CCN(C)CC3)c2)c(C)c1 (stereo not drawn) [Example 33, N-[3-(4-methyl-piperazin-1-yl)-benzyl]-2-[2-(2,4,6-trimethyl-phenylsulfonyl)-1,2,3,4-tetrahydro-isoquinolin-3-ylmethoxy]-acetamide] |
| 103 | 102 |  |  | COc1cc(C)c(S(=O)(=O)N2CCCC2COCC(=O)N2CCC(N3CCCCC3)CC2)c(C)c1 (stereo not drawn) [Example 520, 1-(1,4′-bipiperidin-1′-yl)-2-((1-(4-methoxy-2,6-dimethylphenylsulfonyl)pyrrolidin-2-yl)methoxy)ethanone] |
| 99.9 | 101 |  |  | COc1cc(C)c(S(=O)(=O)N2CCCCC2COCC(=O)N2CCc3cc(N4CCN(C)CC4)ccc3C2)c(C)c1 (stereo not drawn) [Example 215, 2-((1-(4-methoxy-2,6-dimethylphenylsulfonyl)piperidin-2-yl)methoxy)-1-(6-(4-methylpiperazin-1-yl)-3,4-dihydroisoquinolin-2(1H)-yl)ethanone] |
| 50.2 | 101 |  |  | COc1cc(C)c(S(=O)(=O)N2CCCCC2COCC(=O)NCCn2nccc2C)c(C)c1 (stereo not drawn) [Example 416, 2-((1-(4-methoxy-2,6-dimethylphenylsulfonyl)piperidin-2-yl)methoxy)-N-(2-(5-methyl-1H-pyrazol-1-yl)ethyl)acetamide] |
| 69.9 | 24.2 |  |  | CCN(CC)CCN(CCN(CC)CC)C(=O)COCC1Cc2ccccc2CN1S(=O)(=O)c1ccc(Cl)c(Cl)c1 (stereo not drawn) [Example 43, 2-[2-(3,4-dichloro-phenylsulfonyl)-1,2,3,4-tetrahydro-isoquinolin-3-ylmethoxy]-N,N-bis-(2-diethylamino-ethyl)-acetamide] |
| 99.2 | 101 |  |  | Cc1ccccc1S(=O)(=O)N1CCCCC1COCC(=O)N1CCN(C2CCN(C)CC2)CC1 (stereo not drawn) [Example 159, 1-(4-(1-methylpiperidin-4-yl)piperazin-1-yl)-2-((1-(o-tolylsulfonyl)piperidin-2-yl)methoxy)ethanone dihydrochloride] |
